Values after ≈ are worked out from the molar mass of the structure shown. Where two headings read alike, the source gives them in different places. Peptide text beside a SMILES is read from it.
Legend:
P. aeruginosa = format: cell-based, Pseudomonas aeruginosa
Description: (§1) In certain embodiments the MIC assays are performed as described herein in the Examples. For each organism, the media and growth conditions utilized is detailed in Table 8.
(§2) In certain embodiments the MIC assays are performed as follows: For each organism, the media and growth conditions utilized is detailed in Table 8.

P. gingivalis = format: cell-based, Porphyromonas gingivalis
Description: as §1, §2

T. rubrum = format: cell-based, Trichophyton rubrum
Method in brief: (§3)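 Minimum inhibitory concentration was determined separately for each organism, using media and growth conditions chosen for that organism.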

M. furfur = experiment: MIC assay, M. furfur; format: cell-based, Malassezia furfur; conditions: ATCC medium 1072, 37° C., aerobic, inoculum 10^5 CFU/ml, 18-24 h or 48 h
Description: as §1, §2

B. subtilis = format: cell-based, Bacillus subtilis
Method in brief: as §3

C. jeikeium = experiment: MIC assay, C. jeikeium; format: cell-based, Corynebacterium jeikium; conditions: TSB supplemented with 1% Tween-80, 37° C., aerobic, inoculum 10^6 CFU/ml, 18-24 h or 48 h
Description: as §1, §2

MRSA = format: cell-based, Methicillin-resistant Staphylococcus aureus
Method in brief: as §3

S. epidermidis = format: cell-based
Method in brief: as §3

S. mutans = format: cell-based, Streptococcus mutans
Description: as §1, §2

C. albicans = format: cell-based, Candida albicans
Description: as §1, §2

A. niger = format: cell-based, Aspergillus niger
Method in brief: as §3

E. faecalis = format: cell-based, Enterococcus faecalis
Description: as §1, §2

A. naeslundii = format: cell-based, Actinomyces naeslundii
Description: as §1, §2

F. nucleatum = format: cell-based, Fusobacterium nucleatum
Description: as §1, §2

| SMILES | MIC (P. aeruginosa; P. aeruginosa, MH, 37° C., aerobic, inoculum 10^5 CFU/ml, 18-24 h or 48 h) | MIC (P. gingivalis; P. gingivalis, Columbia broth, 37° C., anaerobic, inoculum 10^5 CFU/ml, 18-24 h or 48 h) | MIC (T. rubrum; T. rubrum, Potato Dextrose Agar, 25° C., aerobic, inoculum 10^5 CFU/ml, 18-24 h or 48 h) | MIC (M. furfur) | MIC (B. subtilis) | MIC (C. jeikeium) | MIC (MRSA; MRSA, BHI supplemented with 2% glucose, 37° C., aerobic, inoculum 10^5 CFU/ml, 18-24 h or 48 h) | MIC (S. epidermidis; S. epidermidis, BHI supplemented with 0.25% glucose, 37° C., aerobic, inoculum 10^5 CFU/ml, 18-24 h or 48 h) | MIC (S. mutans; S. mutans, TH supplemented with 1% sucrose, 37° C., anaerobic, inoculum 10^5 CFU/ml, 18-24 h or 48 h) | MIC (T. rubrum) | MIC (MRSA) | MIC (S. epidermidis) | MIC (C. albicans) | MIC (A. niger) | MIC (E. faecalis) | MIC (P. aeruginosa) | MIC (P. gingivalis) | MIC (S. mutans) | MIC (A. naeslundii) | MIC (F. nucleatum) |
| --- | --- | --- | --- | --- | --- | --- | --- | --- | --- | --- | --- | --- | --- | --- | --- | --- | --- | --- | --- | --- |
| CC[C@H](C)[C@H](NC(=O)[C@@H](NC(=O)[C@H](CO)NC(=O)CN)C(C)C)C(=O)N[C@@H](CCCCN)C(=O)N[C@@H](CCCCN)C(=O)N[C@@H](CCCNC(=N)N)C(=O)N[C@@H](CCCNC(=N)N)C(=O)N[C@@H](CCCCN)C(=O)N[C@@H](CCCNC(=N)N)C(=O)N[C@@H](CCSC)C(=O)N[C@@H](CO)C(=O)N[C@@H](CCCCN)C(=O)N[C@@H](CCCCN)C(=O)N[C@@H](CCCCN)C(=O)N[C@@H](Cc1c[nH]cn1)C(=O)N[C@@H](CCCNC(=N)N)C(=O)N[C@@H](CCCCN)C(=O)N[C@@H](CCSC)C(=O)N[C@@H](CC(C)C)C(=O)N[C@@H](CCCNC(=N)N)C(=O)N[C@@H](CCCNC(=N)N)C(=O)N[C@H](C(=O)N[C@@H](CCCNC(=N)N)C(=O)N[C@H](C(=O)N[C@@H](CCC(N)=O)C(=O)N[C@@H](CCCNC(=N)N)C(=O)N[C@@H](CCCNC(=N)N)C(=O)N[C@@H](CCCCN)C(=O)N[C@@H](CC(C)C)C(=O)NCC(=O)N[C@@H](CCCCN)C(=O)O)C(C)C)[C@@H](C)O [PF-S028] | 50 µM (≈ 202 µg/mL) | 25 µM (≈ 101 µg/mL) | 50 µM (≈ 202 µg/mL) | 2.5 µM (≈ 10.1 µg/mL) | 12.5 µM (≈ 50.4 µg/mL) | 6.25 µM (≈ 25.2 µg/mL) | 50 µM (≈ 202 µg/mL) | 25 µM (≈ 101 µg/mL) | 50 µM (≈ 202 µg/mL) |  |  |  |  |  |  |  |  |  |  |  |
| CC[C@H](C)[C@H](NC(=O)[C@H](C)NC(=O)[C@H](CO)NC(=O)[C@H](CC(=O)O)NC(=O)[C@H](Cc1ccc(O)cc1)NC(=O)[C@H](C)NC(=O)[C@@H](NC(=O)[C@H](CC(C)C)NC(=O)[C@H](C)NC(=O)[C@H](CC(C)C)NC(=O)[C@H](CO)NC(=O)CNC(=O)[C@H](Cc1ccccc1)NC(=O)[C@H](CCCNC(=N)N)NC(=O)[C@@H](N)CCSC)C(C)C)C(=O)N[C@@H](CCCCN)C(=O)N[C@@H](Cc1c[nH]cn1)C(=O)N[C@@H](CO)C(=O)N[C@@H](Cc1c[nH]c2ccccc12)C(=O)N1CCC[C@H]1C(=O)N[C@@H](CCCNC(=N)N)C(=O)N1CCC[C@H]1C(=O)N[C@@H](CO)C(=O)N[C@@H](CO)C(=O)N[C@H](C(=O)N[C@@H](CCCNC(=N)N)C(=O)N[C@@H](CCCNC(=N)N)C(=O)N[C@@H](CC(C)C)C(=O)N[C@@H](CCCNC(=N)N)C(=O)N[C@@H](CCSC)C(=O)O)C(C)C [PF-672] (H-MRFGSLALVAYDSAIKHSWPRPSSVRRLRM-OH; N-terminus and C-terminus assumed) |  |  |  |  | 0.78 µM (≈ 2.72 µg/mL) |  |  |  |  | 0.78 µM (≈ 2.72 µg/mL) | 1.56 µM (≈ 5.44 µg/mL) | 0.39 µM (≈ 1.36 µg/mL) | 1.56 µM (≈ 5.44 µg/mL) | 3 µM (≈ 10.5 µg/mL) | 3.13 µM (≈ 10.9 µg/mL) |  |  |  |  |  |
| CC[C@H](C)[C@H](NC(=O)[C@H](C)NC(=O)[C@H](CC(N)=O)NC(=O)[C@@H](NC(=O)[C@H](CC(C)C)NC(=O)[C@H](CCCNC(=N)N)NC(=O)[C@H](Cc1ccc(O)cc1)NC(=O)[C@@H](N)CC(N)=O)C(C)C)C(=O)N[C@@H](Cc1ccccc1)C(=O)N[C@@H](CO)C(=O)N[C@@H](CCCCN)C(=O)N[C@H](C(=O)N[C@@H](Cc1ccccc1)C(=O)N[C@@H](CCCCN)C(=O)N[C@@H](CCCCN)C(=O)N[C@@H](CCCCN)C(=O)N[C@@H](Cc1ccccc1)C(=O)N[C@H](C(=O)N[C@@H](CCCCN)C(=O)N[C@@H](Cc1ccccc1)C(=O)O)[C@@H](C)CC)[C@@H](C)CC [PF-C252] (H-NYRLVNAIFSKIFKKKFIKF-OH; N-terminus and C-terminus assumed) |  |  |  |  |  |  |  |  |  | 50 µM (≈ 125 µg/mL) | 50 µM (≈ 125 µg/mL) | 25 µM (≈ 62.6 µg/mL) | 25 µM (≈ 62.6 µg/mL) |  |  | 50 µM (≈ 125 µg/mL) | 25 µM (≈ 62.6 µg/mL) | 12.5 µM (≈ 31.3 µg/mL) | 25 µM (≈ 62.6 µg/mL) | 25 µM (≈ 62.6 µg/mL) |

— patent US20100184683A1, “ANTIBACTERIAL AND ANTIFUNGAL PEPTIDES” (C3 JIAN, INC., priority 2009, published 2010)
